Results as given in patent US20250228865A1, “COMPOUNDS FOR ENHANCING READ THROUGH OF GENES CONTAINING PREMATURE TERMINATION CODONS AND METHODS FOR MAKING AND USING THE SAME” (Sanofi US Services Inc., priority 2022, published 2025).

Assays:
[1] = system: recombinant human CFTR carrying the premature stop codon (PTC) mutation R1162X; experiment: CFTR-PTC mutant translation readthrough, Nanoluc tagged CFTR luminescence (R1162X cell line); type: cell-based; conditions: for CFTR R1162X ACTIVITY Fold 10 μM G-418: fold over 10 μM G-418, in combination with G418; for EC50: in combination with G418, 16HBE cells, read-out: CFTR R1162X ACTIVITY EC50
In short: (§1)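 16HBE cells stably expressing Nanoluc-tagged human CFTR with G542X or R1162X, in medium with 3 μM VX-809, treated 48 h at 37 °C with compound (10-point, 2-fold, top 50 μM final) alone or with 10 μM G418. Live-cell Nanoluc luminescence normalised to a maximally effective G418 (125-250 μM).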

[2] = system: recombinant human CFTR carrying the premature stop codon (PTC) mutation G542X; experiment: CFTR-PTC mutant translation readthrough, Nanoluc tagged CFTR luminescence (G542X cell line); type: cell-based; conditions: in combination with G418, G542X cell line; for CFTR G542X ACTIVITY Fold 10 μM G-418: fold over 10 μM G-418; for EC50: 16HBE cells
In short: as §1

Row | Compound | EC50 [1] | EC50 [2] | CFTR R1162X ACTIVITY Fold 10 μM G-418 [1] | CFTR G542X ACTIVITY Fold 10 μM G-418 [2]
1 | NC(=O)c1ncn(-c2ncc(OCc3c(Cl)cccc3Cl)cn2)n1 [1-[5-[(2,6-dichlorophenyl)methoxy]pyrimidin-2-yl]-1,2,4-triazole-3-carboxamide] | > 10 µM | 1 to 10 µM |  | C′ (C′ = <5X)
2 | Cc1cccc(C(F)(F)F)c1COc1ccc(N2CC(CO)OC2=O)cc1 (centres unmarked) | 1 to 10 µM | 1 to 10 µM | A′ (A′ = ≥10X) | A′ (A′ = ≥10X)
3 | OCc1ccn(-c2ncc(OCc3c(Cl)cccc3OC(F)(F)F)cn2)n1 | 1 to 10 µM | < 1 µM | B′ (B′ = ≥5X to <10X) | A′ (A′ = ≥10X)
4 | O=C1N[C@@H](CO)CN1c1ccc(OCc2c(Cl)cccc2Cl)cn1 | 1 to 10 µM | 1 to 10 µM | A′ (A′ = ≥10X) | A′ (A′ = ≥10X)
5 | O=C(O)c1ncn(-c2ncc(OCc3c(Cl)cccc3C(F)(F)F)cn2)n1 | > 10 µM | > 10 µM |  | 
6 | Clc1cccc(Cl)c1COc1ccc(-n2ccnc2)cc1 [1-[4-[(2,6-dichlorophenyl)methoxy]phenyl]imidazole] | > 10 µM | 1 to 10 µM | A′ (A′ = ≥10X) | B′ (B′ = ≥5X to <10X)
7 | O=C1OC(CO)CN1c1ccc(CCc2c(Cl)cccc2Cl)cn1 (centres unmarked) [3-[5-[2-(2,6-dichlorophenyl)ethyl]-2-pyridyl]-5-(hydroxymethyl)oxazolidin-2-one] | > 10 µM | 1 to 10 µM | A′ (A′ = ≥10X) | B′ (B′ = ≥5X to <10X)
8 | Cc1cccc(C(F)(F)F)c1COc1cnc(N2C(=O)CN(C)C2=O)nc1 | > 10 µM | > 10 µM | C′ (C′ = <5X) | B′ (B′ = ≥5X to <10X)
9 | Cc1cccc(C(F)(F)F)c1COc1cnc(N2CC(=O)N(CO)C2=O)nc1 | 1 to 10 µM | 1 to 10 µM | A′ (A′ = ≥10X) | A′ (A′ = ≥10X)
10 | O=C1CN(Cc2ccccc2)C(=O)N1c1ncc(OCc2ccccc2)cn1 [1-benzyl-3-(5-benzyloxypyrimidin-2-yl)imidazolidine-2,4-dione] | 1 to 10 µM | < 1 µM | A′ (A′ = ≥10X) | A′ (A′ = ≥10X)
11 | OC[C@@H]1CN(c2ncc(OCc3c(Cl)cccc3Cl)cn2)C[C@@H](C(F)(F)F)O1 (racemic) | 1 to 10 µM | < 1 µM | B′ (B′ = ≥5X to <10X) | A′ (A′ = ≥10X)
12 | COCC1CN(c2ccc(OCc3c(Cl)cccc3Cl)cc2)C(=O)N1 (centres unmarked) [1-[4-[(2,6-dichlorophenyl)methoxy]phenyl]-4-(methoxymethyl)imidazolidin-2-one] | 1 to 10 µM | 1 to 10 µM | B′ (B′ = ≥5X to <10X) | B′ (B′ = ≥5X to <10X)
13 | OCc1cn(-c2ncc(OCc3c(Cl)cccc3C(F)(F)F)cn2)nn1 | 1 to 10 µM | 1 to 10 µM | A′ (A′ = ≥10X) | A′ (A′ = ≥10X)
14 | O=C1OC(CO)CN1c1ncc(OCc2c(Cl)cccc2C(F)(F)F)cn1 (centres unmarked) | 1 to 10 µM | 1 to 10 µM | A′ (A′ = ≥10X) | A′ (A′ = ≥10X)
15 | O=C1O[C@@H](CO)CN1c1ccc(OCc2c(Cl)cccc2C(F)(F)F)cn1 | 1 to 10 µM | 1 to 10 µM | A′ (A′ = ≥10X) | A′ (A′ = ≥10X)

Second part, led by results:

Row | EC50 [1] | EC50 [2] | Compound | CFTR R1162X ACTIVITY Fold 10 μM G-418 [1] | CFTR G542X ACTIVITY Fold 10 μM G-418 [2]
16 | < 1 µM | 1 to 10 µM | N#Cc1ccn(-c2ncc(OCc3c(Cl)cccc3Cl)cn2)n1 [1-[5-[(2,6-dichlorophenyl)methoxy]pyrimidin-2-yl]pyrazole-3-carbonitrile] | B′ (B′ = ≥5X to <10X) | A′ (A′ = ≥10X)
17 | 1 to 10 µM | 1 to 10 µM | O=C1COC(=O)N1c1ccc(OCc2c(Cl)cccc2Cl)cc1 [3-[4-[(2,6-dichlorophenyl)methoxy]phenyl]oxazolidine-2,4-dione] | C′ (C′ = <5X) | B′ (B′ = ≥5X to <10X)
18 | 1 to 10 µM | 1 to 10 µM | NCc1ccn(-c2ccc(OCc3c(Cl)cccc3Cl)cc2)n1 [[1-[4-[(2,6-dichlorophenyl)methoxy]phenyl]pyrazol-3-yl]methanamine] | A′ (A′ = ≥10X) | B′ (B′ = ≥5X to <10X)
19 | 1 to 10 µM | 1 to 10 µM | CC(O)C1CCN(c2ncc(OCc3c(Cl)cccc3Cl)cn2)C1 (centres unmarked) [1-[1-[5-[(2,6-dichlorophenyl)methoxy]pyrimidin-2-yl]pyrrolidin-3-yl]ethanol] | A′ (A′ = ≥10X) | A′ (A′ = ≥10X)
20 | 1 to 10 µM | 1 to 10 µM | CN1CCN(c2ncc(OCc3c(Cl)cccc3Cl)cn2)CC1=O [4-[5-[(2,6-dichlorophenyl)methoxy]pyrimidin-2-yl]-1-methyl-piperazin-2-one] | A′ (A′ = ≥10X) | A′ (A′ = ≥10X)
21 | 1 to 10 µM | < 1 µM | NC[C@@H]1CN(c2ncc(OCc3c(Cl)cccc3Cl)cn2)CCO1 | A′ (A′ = ≥10X) | B′ (B′ = ≥5X to <10X)
22 | < 1 µM | < 1 µM | OCc1nnc(-c2ccc(OCc3c(Cl)cccc3C(F)(F)F)cn2)o1 | C′ (C′ = <5X) | C′ (C′ = <5X)
23 | < 1 µM | < 1 µM | NCC1CCCN(c2ncc(OCc3c(Cl)cccc3Cl)cn2)C1 (centres unmarked) [[1-[5-[(2,6-dichlorophenyl)methoxy]pyrimidin-2-yl]-3-piperidyl]methanamine] | A′ (A′ = ≥10X) | A′ (A′ = ≥10X)
24 | 1 to 10 µM | 1 to 10 µM | OCc1cnn(-c2ccc(OCc3c(Cl)cccc3Cl)cc2)c1 [[1-[4-[(2,6-dichlorophenyl)methoxy]phenyl]pyrazol-4-yl]methanol] | A′ (A′ = ≥10X) | A′ (A′ = ≥10X)
25 | < 1 µM | < 1 µM | OCc1nnc(-c2ccc(OCc3c(Cl)cccc3C(F)(F)F)cc2)o1 | A′ (A′ = ≥10X) | A′ (A′ = ≥10X)
26 | < 1 µM | < 1 µM | Cc1cccc(C(F)(F)F)c1COc1cnc(N(C)CCCCO)nc1 | A′ (A′ = ≥10X) | A′ (A′ = ≥10X)
27 | < 1 µM | < 1 µM | OCC1CN(c2ccc(OCc3c(Cl)cccc3C(F)(F)F)cn2)CCO1 (centres unmarked) | A′ (A′ = ≥10X) | A′ (A′ = ≥10X)
28 | < 1 µM | < 1 µM | Cc1cccc(C(F)(F)F)c1COc1cnc(N2CCN3CCOCC3C2)nc1 (centres unmarked) | A′ (A′ = ≥10X) | A′ (A′ = ≥10X)
29 | < 1 µM | < 1 µM | OCc1ncn(-c2ccc(OCc3c(Cl)cccc3C(F)(F)F)cn2)n1 | A′ (A′ = ≥10X) | A′ (A′ = ≥10X)
